In a melting point compilation (Tetko et al.; mined from patent text by program, amines drawn as free bases though some values may be those of a salt):

| Compound | melting point |
| --- | --- |
| CC(=O)Nc1ccnn(C)c1=O | 152 to 153 °C |
| CNC(=S)Nc1cc(F)ccc1N1CCOCC1 | 145 to 148 °C |
| COc1ccc2c(c1)c(=O)c(S(=O)(=O)N(C)C)cn2C | 199 to 201 °C |
| CS(=O)(=O)c1ccc(-c2cc(-c3c(-c4ccccn4)nc4ccccn34)ccn2)cc1 | 242 to 244 °C |
| CCCCCCCCCCC1(CCCCCCCCCC)c2cc(Br)ccc2-c2ccc(-c3cccs3)cc21 | 36.9 to 38.4 °C |
| Cc1cc(C#Cc2cn(-c3ncccn3)c(C)n2)ccn1 | 164 to 165 °C |
| Cn1nnnc1-c1cn(C)c2ccc(F)cc2c1=O | 260 to 261 °C |
| CC(=O)NC(C(=O)c1ccccc1N)[N+](=O)[O-] (centres undefined) | 178 to 179 °C |
| CCNS(=O)(=O)/C=C/c1ccc2[nH]cc(C3CCN(Cc4ccccc4)CC3)c2c1 | 178 to 180 °C |
| Nc1ncccc1-c1nc2cc(F)cnc2n1-c1ccc(CC(=O)Nc2ccccc2)cc1 | 240 to 242 °C |
| CCSc1cc(CC=NOC)ccc1N(CC)c1nc(C)cc(C)n1 | 77 to 78 °C |
| O=C(OCC1OC(n2cc(F)c(=O)[nH]c2=O)CC1OCc1ccccc1)c1ccc2c(c1)OCO2 (centres undefined) | 169 to 171 °C |
| CC1=CC(c2ccc(Cl)c(Cl)c2)C2=C(CCCC2=O)N1 (centres undefined) | 199 to 201 °C |
| O=C1NC(=O)[C@@]2(C[C@@H](C(=O)NO)Oc3ccc(F)cc32)N1 | 178 °C |
| CCCCCCCCCCCCCC=C1CC(CO)(COC(C)=O)OC1=O (racemic) | 58 to 59 °C |
| C/C=C/C[C@@H](C)[C@@H](O)[C@H](NC)C(=O)O | 228 to 233 °C |
| CC(C)(C(=O)O)C1(Br)OC2=CC=CC2=CC1c1ccccc1 (centres undefined) | 183 to 196 °C |
| CCCCOc1cc(CCS(=O)(=O)NC(=O)OCCC)n(Cc2ccc(Cl)cc2Cl)n1 | 92 to 94 °C |
| CN(CCCCNC(=O)NCCSCc1csc(NC(=N)N)n1)CCOC(c1ccccc1)c1ccccc1 | 101 °C |
| CC(=O)N1CCN(c2ccc(N)cc2)CC1 | 142 to 144 °C |
| COc1ccc(C=CC(=O)NNC(=O)C=Cc2ccccc2)cc1 | 263 °C |
| Cc1nc2c(OC3CCc4ccccc43)nccc2n1C (centres undefined) | 164 to 165 °C |
| CCSc1nc2ccccc2c(=O)n1NC(=O)Nc1ccc(Cl)cc1 | 234 to 235 °C |
| CCCCCCS(=O)(=O)c1c(O)cc(C)oc1=O | 65 to 66 °C |
| CC1(C)CC(=O)c2cc(C#N)c(NC3CCCC3)nc2C1 | 154 to 156 °C |

| Compound | melting point |
| --- | --- |
| CCCn1nc(C(C)C)c(C(N)=O)c1Cc1ccc(-c2ccccc2S(=O)(=O)NC(=O)c2ccccc2)cc1 | 197 to 200 °C |
| Cc1n[nH]c2cc(F)ccc12 | 116 to 117 °C |
| C=CCN1C(=O)c2cscc2Nc2ccccc21 | 105 to 106 °C |
| CCc1nc2cc(C#N)c(Cl)cc2n1-c1ccc(CCNC(=O)NS(=O)(=O)c2ccc(C)cc2)cc1 | 219 to 224 °C |
| CC1(C)CCC(C)(C)c2cc(C(=O)Nc3ccc(F)cc3)ccc21 | 163 to 165 °C |
| COc1ccccc1C1CCC(=O)C=C1C(=O)O (racemic) | 177 °C |
| CCCCc1nc(Cl)c(C(=O)N2CCCC2)n1Cc1ccc2oc(-c3ccccc3-c3nnn[nH]3)c(Br)c2c1 | 120 to 122 °C |
| CC(C)N(CCO)c1nc(Nc2cccc(NS(C)(=O)=O)c2)nc2[nH]ccc12 | 129 to 132 °C |
| COC(=O)c1cnn(C)c1C(=O)Nc1ccn2nc(-c3cccnc3)nc2c1 | 228 to 231 °C |
| CC(Oc1cc(C(F)(F)F)cc(C(F)(F)F)c1)C(=O)O (centres undefined) | 51 to 53 °C |
| CCc1cc2nccc(-c3cccnc3)n2n1 | 103 to 104 °C |
| CC(C1CC1)N(CCCc1c[nH]c2ccc(F)cc12)C1COc2c(F)ccc(C(N)=O)c2C1 (centres undefined) | 124 °C |
| O=C1C2=C(CCCC2)C(=O)N1c1cc(O)c(Cl)cc1Cl | 155 to 157 °C |
| NC(=O)c1[nH]cnc1OC(=O)C=Cc1cccc([N+](=O)[O-])c1 | 197 °C |
| CC(CCCc1ccc(F)cc1)c1cc(O)c2c(c1)OC(C)(C)c1ccncc1-2 (centres undefined) | 72 to 74 °C |
| CCOC(=O)COc1ccc(CBr)cc1 | 44 to 45 °C |
| Cc1cn(C)c2c1N(C(=O)CCBr)c1ccccc1NC2=O | 194 to 195 °C |
| c1ccc(Nc2ccc(-c3ccc(N(c4ccc(-c5ccccc5)cc4)c4ccc(-c5ccccc5)cc4)cc3)cc2)cc1 | 146 °C |
| CCOC(=O)C(C)(Cc1ccc([N+](=O)[O-])cc1)C(=O)OCC | 59 to 61 °C |
| COc1ccc(C(=O)c2cccc(C(F)(F)F)c2F)c(OC)c1 | 79 to 82 °C |
| O=S1(=O)N[C@@H](c2ccccc2)c2ccccc21 | 139 °C |
| Cc1ccn(-c2ccc(Oc3ccc(F)cc3)cc2)n1 | 80 to 81 °C |
| CC1(Oc2ccc(CC(=O)c3ccc4c(c3)CCC4)cc2)CCCC1C(=O)O (centres undefined) | 191 to 193 °C |
| CNC(=O)c1cc(-c2ccc(OC)c(F)c2)nn(CC2CC2)c1=O | 140 to 141 °C |
| CC1(C)COC(CCc2ccc(NC=NO)cc2)OC1 | 159 to 160 °C |

| Compound | melting point |
| --- | --- |
| COC(=O)Nc1cn2nc(OCc3cc(OC)c(OC)c(OC)c3)ccc2n1 | 213 to 215 °C |
| O=c1[nH]cnc(N=Nc2ccccc2)c1O | 244 to 245 °C |
| N#CCOc1cccc2c1c1cccc3c1n2C(c1ccccc1)CO3 (centres undefined) | 61 °C |
| COc1cc(C)c(NS(C)(=O)=O)cc1C(=O)NCC1CCCO1 (centres undefined) | 207 to 208 °C |
| CC(C)CCC(=O)N1CCN(C(=O)OC(C)(C)C)CC1 | 88 to 90.2 °C |
| C#CCN1CCN(C(C)=O)CC1 | 63 to 65 °C |
| O=C(Cc1ccc(C(F)(F)F)cc1)NCc1ccc2c(c1)CN(C1CCC(=O)NC1=O)C2=O (centres undefined) | 217 to 219 °C |
| O=c1ccc(-c2ccc(OC3CCN(C4CCCC4)CC3)nc2)n[nH]1 | 233 to 237 °C |
| CCc1cc(CC)c(-c2c(O)c(C)nn(C)c2=O)c(CC)c1I | 217 to 219 °C |
| O=c1cnc(-c2cccc(Cc3ccccc3)c2)nn1CC(F)(F)F | 95 to 96 °C |
| CC(C)OCc1cc2ccccc2oc1=Nc1ccccc1 | 107 to 108 °C |
| CNc1nc(C(F)(F)F)cc(=O)n1-c1c(Cl)cc(C(F)(F)F)cc1Cl | 211 to 214 °C |
| Cc1cccc(OCC(F)(F)F)c1N(Cc1cc[nH]n1)C(=O)CCl | 104 to 105 °C |
| CC(c1ccc(O)cc1)c1ccc(O)cc1 | 123 to 125 °C |
| COc1ccc(-c2ncc(N(C)CCCCOCC(=O)O)nc2-c2ccc(OC)cc2)cc1 | 128 to 130 °C |
| CCn1c(=O)n(CC)c2cc3c(N4CCN(C(=O)Nc5ccc(Oc6ccccc6)cc5)CC4)ncnc3cc21 | 168 to 169 °C |
| NC(=O)c1ccc(CCBr)cc1 | 152 to 153 °C |
| O=C1c2c(O)ccc(O)c2C(=O)c2c(NCCN3CCC(O)C3)ccc(NCCN3CCC(O)C3)c21 (centres undefined) | 197 to 199 °C |
| CC(=O)OC1CCCC(n2cnc3cc(Cl)c(Cl)cc32)C1OC(C)=O (centres undefined) | 163 to 165 °C |
| CNc1ncc(-c2ccc(C)cc2)c(-c2ccc(C)cc2)n1 | 160 to 162 °C |
| Cn1cncc1C(O)(c1ccc(Cl)cc1)c1ccc2c(c1)C(c1cccc(Cl)c1)=NCc1nnnn1-2 (centres undefined) | 240 °C |
| CCCOc1ccnc2c1c(C(C)=O)cn2S(=O)(=O)c1ccccc1 | 119 to 121 °C |
| Cc1nc(-n2ccc(O)cc2=O)sc1C(=O)NCc1ccc(F)cc1 | 280 to 282 °C |
| CC(C)(C)c1cc(CCc2ccccc2NC(=O)NC2CCN(Cc3ccc(F)cc3)CC2)cc(C(C)(C)C)c1O | 174 to 175 °C |
| CCC(CC)C(=O)OCOC(=O)C1=C(S[C@H]2CC[S@@](=O)C2)S[C@@H]2[C@@H]([C@@H](C)O)C(=O)N12 | 105 °C |

| Compound | melting point |
| --- | --- |
| COc1cc(-c2ccccc2C(F)(F)F)c(Cl)cc1C(=O)N1Cc2ccc(C(=O)N(C)Cc3cccnc3)n2Cc2ccccc21 | 124 to 126 °C |
| O=[N+]([O-])c1ccc2[nH]cc(C3=CCN(Cc4ccccc4)CC3)c2c1 | 168 to 170 °C |
| CC(=O)OCC=C(C)C=CC=C(C)C=O | 71 to 72 °C |
| CCN1CCc2ccc(Nc3ncc(Cl)c(N[C@@H]4CCCC[C@H]4NC(C)=O)n3)cc2CC1 | 248 to 250 °C |
| CON(C)C(=O)CNC(=O)OC(C)(C)C | 92 to 95 °C |
| CC(C)(N)c1ccc(-c2nc(Nc3ccc(-n4ccnc4)cc3)ncc2C#N)cc1 | 232 to 233 °C |
| O=C1C=CC(O)(c2cc3ccccc3n2S(=O)(=O)c2ccc(F)cc2)C=C1 | 165 to 166 °C |
| CCOC(=O)Nc1ccc(OC)c(OC)c1C1OCCO1 | 95 to 96 °C |
| CN1CCCC1=NC(=O)Nc1c(Br)cc(Br)cc1Br | 165 to 168 °C |
| CN1Cc2c(-c3noc(C4CC4)n3)ncn2-c2cccc(Cl)c2C1=O | 165 to 169 °C |
| COCCOc1ccc(/C=C/CO)c(Oc2ncc(C(F)(F)F)cc2Cl)c1 | 119 to 121 °C |
| O=c1[nH]ncn1C(c1cccc(Cl)c1)c1ccnc2ccccc12 (centres undefined) | 244 °C |
| O=S1(=O)c2cccc3cccc(c23)N1CCCN1CCC(CC2CCc3ccccc32)CC1 (centres undefined) | 183 °C |
| CCCCOC(=O)C=C(C)C=CC=C(C)C=Cc1c(C)c(C)c(OC)c(C)c1C | 230 to 233 °C |
| O=C(CCCCc1ccccc1)Nc1ccc2c(c1O)C(=O)CC2 | 119 to 121 °C |
| O=C(NC1N=C(c2ccccc2F)c2ccccc2-n2cnnc21)c1cc2ccccc2[nH]1 (centres undefined) | 291 °C |
| O=C(c1ccc(O)c(Cl)c1Cl)c1ccnn1Cc1ccccc1 | 131 to 133 °C |
| CC(C)n1cc(C(=O)O)c2ccc(Br)cc21 | 207 to 209 °C |
| CCCCCCCC(=O)N1CCc2nnc(NN=C(C)C)cc2C1 | 118 to 121 °C |
| COc1ccc(Nc2cc(NCCCO)ncn2)cc1 | 151 to 152 °C |
| COc1ccc(-c2ccc(C(=O)Nc3ccc4nc(CN5C(C)(C)CCCC5(C)C)ccc4c3)cc2)cc1 | 210 to 211 °C |
| Cc1cc(-c2c(-c3ccccc3)nc3ccc(N4CCC5(CCCNC5)CC4)nn23)ccn1 | 175 to 179 °C |
| CCC(=O)NC(C)(C)COc1cccc2nc(C)c(C(=O)O)c(N)c12 | 189 to 193 °C |
| CCCC[C@H](NC(=O)[C@H](CCCCNC(=O)OC(C)(C)C)NC(=O)OCc1ccccc1)C(=O)CSCc1ccco1 | 60 to 63 °C |
